Results on two compounds are retold here after patent publication US10788502B2, “Erythrocyte sedimentation inhibitor” (FUJIMORI KOGYO CO., LTD., priority 2014, dated 2020).

Each structure is given as a SMILES string.

Series [1] relates to erythrocytes in blood anticoagulated with sodium citrate. The series is described as follows: Blood sedimentation of citrated blood left to stand in a glass tube or blood container. The class given is cell-based. Conditions: 30 minutes. The method, then: A solution of DIDS (Tokyo Chemical Industry Co., Ltd.) in physiological saline was added to blood anticoagulated with sodium citrate to a final concentration of 0.15 mg/ml or 1.5 mg/ml, respectively. The resulting mixture was mixed, and placed in a glass tube having a diameter of 6 mm (FIG. 1) or a blood container for measurement of thrombus formation (FIG. 2), followed by being left to stand.
A solution of DNDS (Tokyo Chemical Industry Co., Ltd.) in physiological saline was added to blood anticoagulated with sodium citrate to a final concentration of 0.02 mg/ml, 0.1 mg/ml, or 0.2 mg/ml, respectively. The resulting mixture was mixed, and placed in a glass tube having a diameter of 6 mm (FIG. 3), followed by being left to stand.
A solution of DNDS (Tokyo Chemical Industry Co., Ltd.) in physiological saline was added to blood anticoagulated with sodium citrate to a final concentration of 0.5 mg/ml or 1.0 mg/ml, respectively. The resulting mixture was mixed, and placed in a glass tube having a diameter of 6 mm. The glass tube was then inclined at an angle of 30°, and left to stand (FIG. 4).

The subject of series [2] is citrate blood (thrombus formation; blood coagulation capacity and platelet function). The series is described as follows: Microchip capillary perfusion: pressure changes caused by formation of thrombi composed of fibrin and platelets. It counts as cell-based. Conditions: for blood sedimentation: blood sample of the perfusion test; for thrombus formation (pressure pattern during perfusion): perfusion 10 μl/min for 30 minutes, collagen and tissue thromboplastin coated capillary. The method, then:
The apparatus described in FIG. 12 of Patent Document 1 was used.
A capillary having a width of 300 μm, depth of 80 μm, and length of 1.5 cm formed on a microchip was coated with type I collagen (manufactured by Nitta Gelatin Inc.) and tissue thromboplastin (manufactured by Sysmex Corporation). The capillary was perfused with citrate blood supplemented with CTI (corn trypsin inhibitor) (final concentration, 50 μg/ml), calcium chloride (final concentration, 12 mM), and DIDS (final concentration, 0 or 1.5 mg/ml) or DNDS (final concentration, 0.3 mg/ml) fed from a blood container at a flow rate of 10 μl/min for 30 minutes, while changes in the pressure caused by formation of thrombi composed of fibrin and platelets were continuously measured.
FIG. 5 is a graph showing the pressure patterns during the perfusion with blood samples. The pressure reflects formation of thrombi composed of fibrin and activated platelets, and comprehensively reflects the blood coagulation capacity and the platelet function. […] B represents the pressure changes in the case of the blood sample supplemented with DIDS (1.5 mg/ml), and C represents the pressure changes in the case of the perfusion with the blood supplemented with DNDS (0.3 mg/ml).

The next series in a line: Solubility in water. It counts as physicochemical.

Consider `O=[N+]([O-])c1ccc(C=Cc2ccc([N+](=O)[O-])cc2S(=O)(=O)[O-])c(S(=O)(=O)[O-])c1.[Na+].[Na+]` [DNDS, disodium 4,4′-dinitrostilbene-2,2′-disulfonate], for which the “blood sedimentation relative to the control” value in series [1] (0.02 mg/ml final concentration, 6 mm glass tube) is given as “suppressed”; in series [1] (0.1 mg/ml final concentration, 6 mm glass tube) it was “suppressed”; in series [1] (0.5 mg/ml final concentration, 6 mm glass tube inclined at an angle of 30°) it was “suppressed”; in series [1] (1.0 mg/ml final concentration, 6 mm glass tube inclined at an angle of 30°), “suppressed”. Moreover, the blood sedimentation entry is given as “almost completely suppressed” in series [1] (0.2 mg/ml final concentration, 6 mm glass tube) and “strongly suppresses blood sedimentation” in series [2] (0.3 mg/ml). Also, the “thrombus formation (pressure pattern during perfusion)” value in series [2] (0.3 mg/ml) is “does not affect thrombus formation”. Further, in the series “Solubility in water”, the solubility in water result is on record as “soluble in water”.

For `O=S(=O)(O)c1cc(N=C=S)ccc1C=Cc1ccc(N=C=S)cc1S(=O)(=O)O` [DIDS, 4,4′-Diisothiocyanatostilbene-2,2′-disulfonic acid], the blood sedimentation entry in series [1] (0.15 mg/ml final concentration, 6 mm glass tube or blood container for measurement of thrombus formation) is “rather suppressed”; in series [1] (1.5 mg/ml final concentration, glass tube and container having an inclined bottom), “completely suppressed”; in series [2] (1.5 mg/ml) it was “strongly suppresses blood sedimentation”. Besides, the “thrombus formation (pressure pattern during perfusion)” value in series [2] (1.5 mg/ml) was “does not affect thrombus formation”.
